The values below come from patent US20030119748A1 (Idun Pharmaceuticals, Inc., priority 1996, published 2003).

Like-named read-outs stand apart in the source and are kept apart here.

What all share (assay type): biochemical
Experiment [1] deals with T1, CPP32 (Homo sapiens, UniProt P42574).
T1 sequence (P42574 29-277): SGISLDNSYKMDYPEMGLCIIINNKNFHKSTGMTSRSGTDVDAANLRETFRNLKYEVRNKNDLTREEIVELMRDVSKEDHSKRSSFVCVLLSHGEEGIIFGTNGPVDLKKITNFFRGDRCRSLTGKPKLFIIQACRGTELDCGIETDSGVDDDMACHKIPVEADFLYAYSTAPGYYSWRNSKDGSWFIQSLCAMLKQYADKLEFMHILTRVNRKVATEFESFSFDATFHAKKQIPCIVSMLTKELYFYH
Kind of experiment: Fluorescence enzyme assay, IC50 for CPP32 (Example 1A). The note with it: Table 1, Formula A; 30 min preincubation, room temperature. Here is the method:
(§1) Fluorescence enzyme assays detecting the activity of the compounds of Formula 1 utilizing the recombinant ICE and CPP32 enzymes were performed essentially according to Thomberry et al. (Nature, 356:768:774 (1992)) and Nicholson et al. (Nature, 376:37-43 (1995)) respectively, (herein incorporated by reference) in 96 well microtiter plates. The substrate for these assays was Acetyl-Tyr-Val-Ala-Asp-amino-4-methylcoumarin (AMC) for the ICE assay and Acetyl-Asp-Glu-Val-Asp-amino-4-methylcoumarin for the CPP32 and Mch5 assays. Enzyme reactions were run in ICE buffer (25 mM HEPES, 1 mM EDTA, 0.1% CHAPS, 10% sucrose, pH 7.5) containing 2 mM DTT at room temperature in duplicate. The assays were performed by mixing the following components:
(§2) 50 μl of either ICE, Mch2, Mch5 or CPP32 (18.8, 38, 8.1 and 0.153 nM concentrations, respectively) enzyme in ICE buffer containing either 8.0 (ICE, Mch2, CPP32) or 20 (Mch5) mM DTT;
(§3) 50 μl of either the compound of Formula 1 or ICE buffer (control); and
(§4) 100 μl of 20 μM substrate.
(§5) The enzyme and the compound of Formula 1 to be assayed were preincubated in the microtitre plate wells for 30 minutes at room temperature prior to the addition of substrate to initiate the reaction. Fluorescent AMC product formation was monitored for one hour at room temperature by measuring the fluorescence emission at 460 nm using an excitation wavelength of 360 nm. The fluorescence change in duplicate (control) wells were averaged and the mean values were plotted as a function of inhibitor concentration to determine the inhibitor concentration producing 50% inhibition (IC50).

Experiment [2] concerns the target T2, mICE (Mus musculus, UniProt P29452).
T2 sequence (P29452 119-402): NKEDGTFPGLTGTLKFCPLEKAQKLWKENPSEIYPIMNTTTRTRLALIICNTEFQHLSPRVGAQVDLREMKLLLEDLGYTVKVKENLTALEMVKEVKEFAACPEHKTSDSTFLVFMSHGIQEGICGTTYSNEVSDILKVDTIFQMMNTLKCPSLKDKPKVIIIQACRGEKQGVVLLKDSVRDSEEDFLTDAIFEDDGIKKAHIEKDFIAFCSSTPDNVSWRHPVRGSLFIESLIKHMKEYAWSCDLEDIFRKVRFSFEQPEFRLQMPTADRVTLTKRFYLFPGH
In words: Fluorescence enzyme assay, IC50 for ICE (Example 1A). Here is the method:
as §1, §2, §3, §4, §5

Experiment [3] addresses T2, mICE. Kind of experiment: Dissociation constant Ki for irreversible inhibitors, continuous assay (Example 1B). The note with it: compounds of Formula B and Formula C, procedure of Example 1B. The text has this:
B. Determination of the Dissociation Constant K1 and Irreversible Rate Constant k3 for Irreversible Inhibitors
For the irreversible inhibition of a ICE/ced-3 Family Protease enzyme with a competitive irreversible inhibitor; using the model represented by the following formulas: [drawing 4]
The product formation at time t may be expressed as: [drawing 5]
where E, I, EI, and E-I denote the active enzyme, inhibitor, non-covalent enzyme-inhibitor complex and covalent enzyme-inhibitor adduct, respectively. The K1 value is the overall dissociation constant of reversible binding steps, and k3 is the irreversible rate constant. The [S] and Ks values are the substrate concentration and the dissociation constant of the substrate bound to the enzyme, respectively. [E]^T is the total enzyme concentration.
The above equations were used to determine the K1 and k3 values of a given inhibitor bound to a ICE/ced-3 family protease. Thus, a continuous assay was run for sixty minutes at various concentrations of the inhibitor and the substrate. The assay was formulated essentially the same as described in Example 1A above, except that the reaction was initiated by adding the enzyme to the substrate-inhibitor mixture. The K1 and k3 values were obtained by simulating the product AMC formation as a function of time according to Equation 1. The reference compound for this assay was Cbz-ValAlaAsp-CH2F.

The mark [4] stands for this setting: Table 1, Formula A, 30 min preincubation, room temperature, read-out: mICE IC50.

By IC50 is commonly meant the midpoint of a concentration-inhibition curve. On to `CC(NC(=O)c1cc2ccccc2n1CC(=O)O)C(=O)N[C@H](C=O)CC(=O)O` (stereo partly drawn) [Example 30, (3S)-3-[(1-(Carboxymethyl)Indole-2-Carbonyl)Alaninyl] Amino-4-Oxobutanoic Acid], for which the IC50 in experiment [1] is above 50 µM; in experiment [2] (setting [4]) it was 1630 nM.

`CC(C)Cc1c(C(=O)NC(CC2CCCCC2)C(=O)NC(CC(=O)O)C(=O)COc2c(F)c(F)cc(F)c2F)n(C)c2ccccc12` (centres unmarked) [Example 97, N-[(1-methyl-3-isobutyl-indole-2-cabonyl)cyclohexylalaninyl]-3-amino-4-oxo-5-(2,3,5,6-tetrafluorophenyloxy)-pentanoic Acid]: the IC50 in experiment [2] (read-out: IC50 (mICE)) was below 1000 nM. `C[C@H](NC(=O)c1cc2ccccc2n1Cc1ccccc1)C(=O)N[C@H](C=O)CC(=O)O` [Example 24, (3S)-3-[(1-Benzylindole-2-Carbonyl)Alaninyl]Amino-4-Oxo-Butanoic Acid]: the IC50 in experiment [1] was above 50 µM; in experiment [2] (setting [4]), 393 nM. For the compound `CC(C)C(NC(=O)c1cc2cc(F)ccc2n1C)C(=O)NC(CC(=O)O)C(=O)COc1c(F)c(F)cc(F)c1F` (centres unmarked) [Example 115, N-[(5-fluoro-1-methyl-indole-2-cabonyl)valinyl]-3-amino-4-oxo-5-(2,3,5,6-tetrafluorophenyloxy)-pentanoic Acid], the half-inhibitory concentration (IC50) in experiment [2] (read-out: IC50 (mICE)) is below 1000 nM.

In the case of `C=CCCn1c(C(=O)NC(C(=O)NC(C=O)CC(=O)O)C(C)C)cc2ccccc21` [Example 27, (3S)-3-[(1-(4′-Butenyl)indole-2-Carbonyl)Valinyl]Amino-4-Oxobutanoic Acid], the IC50 in experiment [1] was found to be 1.45 µM; in experiment [2] (setting [4]) it was 313 nM. For `CC(C)C(NC(=O)c1cc2ccccc2n1C)C(=O)NC(CC(=O)O)C(=O)COc1c(F)c(F)cc(F)c1F` (centres unmarked) [Example 112, N-[(1-methyl-indole-2-cabonyl)valinyl]-3-amino-4-oxo-5-(2,3,5,6-tetrafluorophenyloxy)-pentanoic Acid], the IC50 in experiment [2] (read-out: IC50 (mICE)) is below 1000 nM. Take `CC(C)Cc1c(C(=O)NC(CC2CCCCC2)C(=O)NC(CC(=O)O)C(=O)COC(=O)c2c(Cl)cccc2Cl)n(C)c2ccccc12` (centres unmarked) [Example 99]: the IC50 in experiment [2] (read-out: IC50 (mICE)) is below 1000 nM. On to `CC(C)C(NC(=O)c1cc2ccccc2n1C)C(=O)NC(C=O)CC(=O)O` [Example 10, (3S)-3-[1-Methylindole-2-Carbonyl)Vainyl]Amino-4-Oxo-Butanoic Acid], for which the figures for the IC50 in experiment [1] and in experiment [2] (setting [4]) were 2.48 µM and 531 nM, respectively. With `CC(C)Cc1c(C(=O)NC(C(=O)NC(CC(=O)O)C(=O)COc2c(F)c(F)cc(F)c2F)C(C)C)n(C)c2ccccc12` (centres unmarked) [Example 83, N-[(1-methyl-3-isobutyl-indole-2-cabonyl)valinyl]-3-amino-4-oxo-5-(2,3,5,6-tetrafluorophenyloxy)-pentanoic Acid], in experiment [2] (read-out: IC50 (mICE)), the IC50 was below 1000 nM. Regarding `Cn1c(C(=O)N2CCC[C@H]2C(=O)N[C@H](C=O)CC(=O)O)cc2ccccc21` [Example 7, (3S)-3-[(1-Methylindole-2-Carbonyl)Prolinyl]Amino-4-Oxo-Butanoic Acid], the half-inhibitory concentration (IC50) was above 50 µM in experiment [1] and 11700 nM in experiment [2] (setting [4]). `CC(C)Cc1c(C(=O)NC(CC(C)C)C(=O)NC(CC(=O)O)C(=O)COc2c(F)c(F)cc(F)c2F)n(C)c2ccccc12` (centres unmarked) [Example 92, N-[(1-methyl-3-isobutyl-indole-2-cabonyl)leucinyl]-3-amino-4-oxo-5-(2,3,5,6-tetrafluorophenyloxy)-pentanoic Acid]: in experiment [2] (read-out: IC50 (mICE)), the IC50 is below 1000 nM. Regarding `CC(C)C(NC(=O)c1cc2ccccc2n1CC(=O)O)C(=O)NC(CC(=O)O)C(=O)COc1c(F)c(F)cc(F)c1F` (centres unmarked) [Example 118, N-{[1-(carboxymethyl)-indole-2-cabonyl]valinyl}-3-amino-4-oxo-5-(2,3,5,6-tetrafluorophenyloxy)-pentanoic Acid], the IC50 in experiment [2] (read-out: IC50 (mICE)) is below 1000 nM. Same read-out and setting: the same measure for `Cc1c(C(=O)NC(C(=O)NC(CC(=O)O)C(=O)COc2cc3ccccc3cc2-c2ncc[nH]2)C(C)C)n(C)c2ccccc12` (centres unmarked) [Example 80, N-[(1,3-dimethyl-indole-2-cabonyl)valinyl]-3-amino-5-[3-(imidazol-2-yl)-naphthyl-2-oxy]-4-oxo-pentanoic Acid]: below 1000 nM. Turning to `CC(C)C(NC(=O)c1cc2ccccc2n1CCCc1ccccc1)C(=O)NC(CC(=O)O)C(=O)CF` (centres unmarked) [Example 52, N-[(1-(3′-Phenylpropyl)Indole-2-Carbonyl)Valinyl]-3-Amino-4-Oxo-5-Fluoropentanoic Acid], the Ki in experiment [3] was below 1000 nM. Regarding `CC(C)Cc1c(C(=O)NC(C(=O)NC(CC(=O)O)C(=O)COc2ccccc2F)C(C)C)n(C)c2ccccc12` (centres unmarked) [Example 87, N-[(1-methyl-3-isobutyl-indole-2-cabonyl)valinyl]-3-amino-4-oxo-5-(2-fluorophenyloxy)-pentanoic Acid], in experiment [2] (read-out: IC50 (mICE)), the IC50 was below 1000 nM.

Consider `C[C@H](NC(=O)c1cc2ccccc2n1C)C(=O)N[C@H](C=O)CC(=O)O` [Example 4, (3S)-3-[(1-Methylindole-2-Carbonyl)Alaninyl]Amino-4-Oxobutanoic Acid], for which the IC50 in experiment [1] was above 10 µM; in experiment [2] (setting [4]), 177 nM. In the case of `CC(NC(=O)c1cc2ccccc2n1CCC(=O)O)C(=O)NC(C=O)CC(=O)O` [Example 33, (3S)-3-(1-(2′-Carboxyethyl)Indole-2-Carbonyl)Alaninyl] Amino-4-Oxobutanoic Acid], the IC50 was above 50 µM in experiment [1] and 198 nM in experiment [2] (setting [4]). Regarding `CC(C)Cc1c(C(=O)NC(CC2CCCCC2)C(=O)NC(CC(=O)O)C(=O)COc2cc(C(F)(F)F)nn2-c2ccccc2)n(C)c2ccccc12` (centres unmarked) [Example 101, N-[(1-methyl-3-isobutyl-indole-2-cabonyl)cyclohexylalaninyl]-3-amino-4-oxo-5-[1-phenyl-3-(trifluoromethyl)pyrazol-5-yloxy]-pentanoic Acid], the IC50 in experiment [2] (read-out: IC50 (mICE)) is below 1000 nM. For the compound `CC(C)Cc1c(C(=O)NC(CC(C)C)C(=O)NC(CC(=O)O)C(=O)COP(=O)(c2ccccc2)c2ccccc2)n(C)c2ccccc12` (centres unmarked) [Example 94, N-[(1-methyl-3-isobutyl-indole-2-cabonyl)leucinyl]-3-amino-5-(diphenylphosphoroxy)-4-oxo-pentanoic Acid], the IC50 in experiment [2] (read-out: IC50 (mICE)) was below 1000 nM. In the case of `CC(C)Cc1c(C(=O)NC(CC(C)C)C(=O)NC(CC(=O)O)C(=O)COC(=O)c2c(Cl)cccc2Cl)n(C)c2ccccc12` (centres unmarked) [Example 90, N-[(1-methyl-3-isobutyl-indole-2-cabonyl)leucinyl]-3-amino-5-(2,6-dichlorobenzoyl) oxy-4-oxo Pentanoic Acid], the IC50 in experiment [2] (read-out: IC50 (mICE)) is below 1000 nM. Still for that read-out and setting: under `Cc1c(C(=O)NC(C(=O)NC(CC(=O)O)C(=O)COc2c(F)c(F)cc(F)c2F)C(C)C)n(C)c2ccccc12` (centres unmarked) [Example 109, N-[(1,3-dimethyl-indole-2-cabonyl)valinyl]-3-amino-4-oxo-5-(2,3,5,6-tetrafluorophenyloxy)-pentanoic Acid] stands below 1000 nM.

On to `Cn1c(C(=O)NCC(=O)N[C@H](C=O)CC(=O)O)cc2ccccc21` [Example 21, (3S)-3-[(1-Methylindole-2-Carbonyl)Glycinyl]-Amino-4-Oxo-Butanoic Acid], for which the IC50 in experiment [1] is above 50 µM; in experiment [2] (setting [4]) it was 34700 nM. For the compound `CC(C)C[C@H](NC(=O)c1cc2ccccc2n1C)C(=O)N[C@H](C=O)CC(=O)O` [Example 13, (3S)-3-[(1-Methylindole-2-Carbonyl)Leucinyl]Amino-4-Oxo-Butanoic Acid], the IC50 worked out at 5.62 µM in experiment [1] and 5520 nM in experiment [2] (setting [4]).
